# Patent EP3050567B1, “COMPOUND FOR ACTIVATING AMPK AND USES THEREOF” (Energenesis Biomedical Co., Ltd., priority 2013, dated 2015)
# Legend:
# [1] = tested on: AMPK; assay: AMPK activation assay (phospho-AMPK Thr172 western blot) in MCF7 cells; assay type: cell-based, human; conditions: 30 min
# Description: (§1) Effects of adenine on AMPK activation were evaluated based on the phosphorylation of AMPK protein upon adenine treatment. Mouse muscle cell C2C12, mouse fibroblast 3T3, human liver carcinoma cell Hep G2, human breast adenocarcinoma cell line MCF7 and human colon adenocarcinoma grade II cell line HT29, human umbilical vein endothelial cell HUVEC, Human acute monocytic leukemiacell THP1, human macrophage cell U937, murine microglia cell BV-2, and mouse neuroblastoma cell Neuro2A and dermal papilla cell were cultured in high-glucose Dulbecco's modified Eagle's medium (DMEM) containing 10% fetal bovine serum (FBS), 4 mM L-glutamine, 2 mM sodium pyruvate and 1% penicillin/streptomycin (Invitrogen GibcoBRL, Carlsbad, Calif., USA) at 37°C, under 5% CO2. Cells were plated at 3 × 10^5 per well in 6-well plates. Twenty-four hours after plating, adenine was added to the culture media as indicated. After 30 min cells were lysed and subject to western blot analysis. Equal amount of protein from each sample was separated by SDS-PAGE and then electroblotted on to PVDF membranes. Membranes were blocked with 3% BSA in PBS for 60 min and incubated with an anti-phospho-AMPK (Thr172) antibody (1:2,000, Cell signaling) or an anti-AMPK antibody (1:2,000, Cell signaling) at 4°C for 16 h followed by the corresponding secondary antibody for 1 h at room temperature (RT). Immunoreactive bands were detected by enhanced chemiluminescence and recorded using Kodak film. The detected signals were scanned and then quantified using TotalLab Quant software (TotalLab).
# [2] = tested on: AMPK; assay: AMPK activation assay (phospho-AMPK Thr172 western blot) in HT29 cells; assay type: cell-based, human; conditions: 30 min
# Description: as §1
# [3] = tested on: AMPK; assay: AMPK activation assay (phospho-AMPK Thr172 western blot) in HUVEC cells; assay type: cell-based, human; conditions: 30 min
# Description: as §1
# [4] = tested on: high-fat diet-fed mice; assay: Anti-diabetic effects in high-fat diet-fed mice; assay type: in vivo, C57BL/6J mice; conditions: adenine 0.1 to 50 mg/kg IP twice a day for 6 days, compared to control group
# Description: To further evaluate the effects of adenine on the modulation of plasma glucose level, the high-fat diet-fed mice were served as a type 2 diabetes animal model. C57BL/6J mice were maintained at 22°C under a 12-h light/dark cycle and fed either a high fat diet (60% kcal% fat) or a normal diet ad libitum. Intraperitoneal injections of adenine (0.1 to 50 mg/kg) or vehicle were given to the high-fat diet-fed mice from the age of 24 weeks and glucose readings were measure at 1 and 3 hr. IP administration of adenine or vehicle only to the high-fat diet-fed mice continued twice a day for 6 days. On day 6, plasma was collected 1 hr after the last dosing for analyzing, evaluating, measuring plasma glucose and triglycerides.
# [5] = tested on: IL-6; assay: LPS-induced inflammatory response in THP1 macrophages, secreted IL-6 (ELISA); assay type: cell-based, human; conditions: 50 ng LPS 6 hr
# Description: Effects of adenine on inflammatory response were evaluated in human THP1 macrophage by examining protein level of intracellular COX-2 and secreted TNFα, IL-1β and IL-6. Differentiation of THP1 monocytes into macrophages was induced by 50 nM PMA for 24 hr. THP1 macrophages were further stimulated by 50 ng LPS for 6 hr in the presence of 10-600 µM of adenine or vehicle followed by cell lysis and western blot analysis. Equal amounts of protein were separated by SDS-PAGE and then electroblotted on to PVDF membranes. Membranes were blocked with 3% BSA in PBS for 60 min and incubated with an anti-COX-2 antibody (1:1,000, Cell signaling), an anti-actin antibody (1:5,000, Cell signaling) at 4° C for 16 h followed by the corresponding secondary antibody for 1 h at room temperature (RT). Immunoreactive bands were detected by enhanced chemiluminescence and recorded using Kodak film. The detected signals were scanned and then quantified using TotalLab Quant software (TotalLab). The secreted TNFα, IL-1β and IL-6 were analyzed by enzyme-linked immunosorbent assays.
# [6] = tested on: 3T3 cells; assay: Fibroblast proliferation assay (trypan blue cell counting); assay type: cell-based, mouse; conditions: 72 h, mean±SEM of three experiments
# Description: (§2) […] fibro blast cell line 3T3 were cultured in high-glucose Dulbecco's modified Eagle's medium (DMEM) containing 10% fetal bovine serum (FBS), 4 mM L-glutamine, 2 mM sodium pyruvate and 1% penicillin/streptomycin (Invitrogen GibcoBRL, Carlsbad, Calif., USA) at 37°C under 5% CO2. For cell proliferation assay, 3T3 cells were plated at 1 × 10^5 per well (6-well plate). Twenty-four hours after plating, cells were treated with indicated concentration of adenine for 72 h and the number of viable cells was counted. Cells were detached using trypsin-EDTA solution and stained with trypan blue. The living cells were counted using hemocytometer.
# [7] = tested on: Hep G2; assay: Cancer cell growth inhibition assay, Hep G2; assay type: cell-based; conditions: Homo sapiens; HepG2 cell proliferation, 72 h, cell counting
# Description: as §2, with “liver hepatocellular carcinoma” for “fibro blast”, “Hep G2, human breast adenocarcinoma cell line MCF7 and human colon adenocarcinoma grade II cell line HT29 were used to evaluate the effects of adenine on cell proliferation. Those cell lines were obtained from ATCC and” for “3T3”, “Cells” for “For cell proliferation assay, 3T3 cells”, “then followed by cell counting.” for “the number of viable cells was counted.”
# [8] = tested on: Hep G2 cells; assay: Tumor growth assay, Hep G2 implanted subcutaneously; assay type: in vivo; conditions: Hep G2 implanted NOD-SCID mice, daily IP adenine 5, 20 or 50 mg/kg, 14 days post implantation, vs control mice
# Description: Human liver hepatocellular carcinoma cell line Hep G2 were cultured in high-glucose Dulbecco's modified Eagle's medium (DMEM) containing 10% fetal bovine serum (FBS), 4 mM L-glutamine, 2 mM sodium pyruvate and 1% penicillin/streptomycin (Invitrogen GibcoBRL, Carlsbad, Calif., USA) at 37°C under 5% CO2. For tumor implantation, 5 × 10^6 Hep G2 cells were injected subcutaneously into 8-week-old male nonobese diabetic-severe combined immunodeficiency (NOD-SCID) mice. After implantation, the mice were daily intraperitoneally injected with 5, 20 or 50 mg/kg body weight of adenine and the tumor size was monitored every 3 days.
smiles,measurement,setting,value
"Nc1ncnc2nc[nH]c12 [Adenine, adenine]",AMPK activation (fold to control),[1]; adenine 1 microM,1.2 fold to control
same,AMPK activation (fold to control),[1]; adenine 10 microM,1.6 fold to control
same,AMPK activation (fold to control),[1]; adenine 100 microM,2.5 fold to control
same,AMPK activation (fold to control),[1]; adenine 200 microM,3.4 fold to control
same,AMPK activation (fold to control),[1]; adenine 600 microM,3.7 fold to control
same,AMPK activation (fold to control),[2]; adenine 1 microM,1.1 fold to control
same,AMPK activation (fold to control),[2]; adenine 10 microM,1.7 fold to control
same,AMPK activation (fold to control),[2]; adenine 100 microM,2.9 fold to control
same,AMPK activation (fold to control),[2]; adenine 200 microM,3.4 fold to control
same,AMPK activation (fold to control),[2]; adenine 600 microM,3.8 fold to control
same,AMPK activation (fold to control),[3]; adenine 1 microM,1.2 fold to control
same,AMPK activation (fold to control),[3]; adenine 10 microM,1.9 fold to control
same,AMPK activation (fold to control),[3]; adenine 100 microM,3.2 fold to control
same,AMPK activation (fold to control),[3]; adenine 200 microM,3.9 fold to control
same,AMPK activation (fold to control),[3]; adenine 600 microM,4.1 fold to control
same,lower body weight,[4],more than 15%
same,lower plasma glucose,[4],> 30%
same,lower plasma triacylglycerides,[4],more than 35%
same,lower plasma glucose,[4]; listed as adenine,more than 30%
same,IL-6 (% to control),[5]; adenine 10 microM,88±6.3 % to control
same,IL-6 (% to control),[5]; adenine 100 microM,21±7.8 % to control
same,IL-6 (% to control),[5]; adenine 600 microM,14±6.2 % to control
same,Cellnumber (% to control),[6]; adenine 10 microM,91±2.7 % to control
same,Cellnumber (% to control),[6]; adenine 50 microM,73±8.1 % to control
same,Cellnumber (% to control),[6]; adenine 100 microM,64±5.3 % to control
same,Cellnumber (% to control),[6]; adenine 200 microM,48±2.8 % to control
same,Cellnumber (% to control),[6]; adenine 500 microM,33±6.4 % to control
same,Cellnumber (% to control),[6]; adenine 1000 microM,27±11.3 % to control
same,IC50,[7],544 µM
same,growth of tumor,[8],significantly retarded
